For this assay, the target named is C5a receptor (Homo sapiens (Human), UniProt P21730). The experiment in a line: Calcium mobilization assay (C5a-induced, U937 cells). Particulars: inhibition of C5a-induced calcium mobilization. The format is cell-based. Here is the method: U937 cells (ATCC® CRL-1593.2) were cultivated in RPMI1640 medium supplemented with 10% fetal bovine serum in a standard cell culture incubator. The day before conducting the assay, Dibutyryl-cAMP (0.5 mM working concentration) was added to cell cultures. Next day, cells were spun and resuspended in RPMI 1640 to a concentration of 40,000 cells per 50 μl. 40,000 cells were plated in one well in a 96 well poly-D-lysine coated plate for two hours to allow cells to adhere. After cell adherence, cytoplasmic calcium^++ indicator (FLIPR Calcium 6 Assay Kit, Molecular Devices) was added to each well and incubated for 75 minutes at 37° C. Test compounds were diluted using a robotic liquid handler. The tips of the robotic liquid handler were changed after each mixing step. Test compounds were added into cell cultures at various concentrations (0.01 nM to 100 μM) for 15 minutes at 37° C. The cell culture plates were then incubated at room temperature for 30 minutes before being placed into Flexstation-3 plate reader (Molecular Devices). The Flexstation-3 was programmed to add recombinant C5a protein at various concentrations (1 nM to 10 nM) to cell culture plates and to monitor the change of fluorescence intensity, which correlates with cytoplasmic calcium concentration. The assay was also performed with the presence of human or animal blood components, such as human or bovine plasma or serum.
Chain of C5a receptor (P21730 whole entry): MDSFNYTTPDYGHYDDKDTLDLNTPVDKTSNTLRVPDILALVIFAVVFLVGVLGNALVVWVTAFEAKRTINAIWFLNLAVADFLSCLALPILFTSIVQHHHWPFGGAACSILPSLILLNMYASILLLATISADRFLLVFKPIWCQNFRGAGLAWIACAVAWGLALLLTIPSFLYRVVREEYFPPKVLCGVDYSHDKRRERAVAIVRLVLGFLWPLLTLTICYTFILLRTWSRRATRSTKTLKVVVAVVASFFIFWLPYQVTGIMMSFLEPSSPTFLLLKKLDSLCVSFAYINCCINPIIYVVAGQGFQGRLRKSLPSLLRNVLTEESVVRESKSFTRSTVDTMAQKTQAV
The half maximal inhibitory concentrations, i.e. IC50, were determined in biological assays, such as calcium mobilization assay. Using the calcium mobilization assay the following IC50 values were determined by the best dose-response curve fitting method. The curves were plotted using percentage inhibition of C5a-induced calcium mobilization versus various concentrations of compounds.

In patent US11149009B2, “Fused piperidinyl bicyclic and related compounds as modulators of C5A receptor” (InflaRx GmbH, priority 2019, dated 2021) one finds IC50 data, which are given here for twelve compounds.

A value given as a limit tells only on which side of the number the result lay.

In the case of `Cc1ccc(NC(=O)[C@H]2Cc3ccccc3N(C(=O)c3c(C)cccc3F)[C@H]2c2ccc(NC3CCCC3)cc2)cc1C(F)(F)F` [INF004, (2R,3S)-2-(4-(cyclopentylamino)phenyl)-1-(2-fluoro-6-methylbenzoyl)-N-(4-methyl-3-(trifluoromethyl)phenyl)-1,2,3,4-tetrahydroquinoline-3-carboxamide], the 50% inhibitory concentration (IC50) was below 10 nM.
As to `Cc1cccc(F)c1C(=O)N1c2ccccc2C[C@H](C(=O)Nc2ccc(CO)c(C(F)(F)F)c2)[C@@H]1c1ccc(NC2CCCC2)cc1` [INF015, (2R,3S)-2-(4-(cyclopentylamino)phenyl)-1-(2-fluoro-6-methylbenzoyl)-N-(4-(hydroxymethyl)-3-(trifluoromethyl)phenyl)-1,2,3,4-tetrahydroquinoline-3-carboxamide], the 50% inhibitory concentration (IC50) was below 10 nM.
The value for `Cc1ccc(NC(=O)[C@H]2Cc3cc(F)ccc3N(C(=O)c3c(C)cccc3F)[C@H]2c2ccc(NC3CCCC3)cc2)cc1C(F)(F)F` [INF022, (2R,3S)-2-(4-(cyclopentylamino)phenyl)-6-fluoro-1-(2-fluoro-6-methylbenzoyl)-N-(4-methyl-3-(trifluoromethyl)phenyl)-1,2,3,4-tetrahydroquinoline-3-carboxamide] was below 10 nM; that for `Cc1ccc2c(c1)C[C@H](C(=O)Nc1ccc(C)c(C(F)(F)F)c1)[C@H](c1ccc(NC3CCCC3)cc1)N2C(=O)c1c(C)cccc1F` [INF023, (2R,3S)-2-(4-(cyclopentylamino)phenyl)-1-(2-fluoro-6-methylbenzoyl)-6-methyl-N-(4-methyl-3-(trifluoromethyl)phenyl)-1,2,3,4-tetrahydroquinoline-3-carboxamide] was below 10 nM.
The figure for `COc1ccc2c(c1)C[C@H](C(=O)Nc1ccc(C)c(C(F)(F)F)c1)[C@H](c1ccc(NC3CCCC3)cc1)N2C(=O)c1c(C)cccc1F` [INF024, (2R,3S)-2-(4-(cyclopentylamino)phenyl)-1-(2-fluoro-6-methylbenzoyl)-6-methoxy-N-(4-methyl-3-(trifluoromethyl)phenyl)-1,2,3,4-tetrahydroquinoline-3-carboxamide] is below 10 nM.
The figure for `Cc1cccc(F)c1C(=O)N1c2ccccc2C[C@H](C(=O)Nc2ccc(O)c(C(F)(F)F)c2)[C@@H]1c1ccc(NC2CCCC2)cc1` [INF033, (2R,3S)-2-(4-(cyclopentylamino)phenyl)-1-(2-fluoro-6-methylbenzoyl)-N-(4-hydroxy-3-(trifluoromethyl)phenyl)-1,2,3,4-tetrahydroquinoline-3-carboxamide] is below 10 nM; for `Cc1cccc(F)c1C(=O)N1c2ccc(F)cc2C[C@H](C(=O)Nc2ccc(CO)c(C(F)(F)F)c2)[C@@H]1c1ccc(NC2CCCC2)cc1` [INF039, (2R,3S)-2-(4-(cyclopentylamino)phenyl)-6-fluoro-1-(2-fluoro-6-methylbenzoyl)-N-(4-(hydroxymethyl)-3-(trifluoromethyl)phenyl)-1,2,3,4-tetrahydroquinoline-3-carboxamide] it is below 10 nM; for `Cc1cccc(F)c1C(=O)N1c2cccc(F)c2C[C@H](C(=O)Nc2ccc(CO)c(C(F)(F)F)c2)[C@@H]1c1ccc(NC2CCCC2)cc1` [INF045, (2R,3S)-2-(4-(cyclopentylamino)phenyl)-5-fluoro-1-(2-fluoro-6-methylbenzoyl)-N-(4-(hydroxymethyl)-3-(trifluoromethyl)phenyl)-1,2,3,4-tetrahydroquinoline-3-carboxamide] it is below 10 nM.
On to `Cc1ccc(NC(=O)[C@H]2C[C@@H](C(F)(F)F)CN(C(=O)c3c(F)cccc3F)[C@H]2c2ccc(NC3CCCC3)cc2)cc1C(F)(F)F` [INF052, (2R,3S,5R)-2-(4-(cyclopentylamino)phenyl)-1-(2,6-difluorobenzoyl)-N-(4-methyl-3-(trifluoromethyl)phenyl)-5-(trifluoromethyl)piperidine-3-carboxamide], for which the IC50 was below 10 nM.
The value for `[2H]C1(Nc2ccc([C@H]3[C@@H](C(=O)Nc4ccc(C)c(C(F)(F)F)c4)C[C@@H](C(F)(F)F)CN3C(=O)c3c(F)cccc3F)cc2)CCCC1` [INF067, (2R,3S,5R)-2-(4-((cyclopentyl-1-d)amino)phenyl)-1-(2,6-difluorobenzoyl)-N-(4-methyl-3-(trifluoromethyl)phenyl)-5-(trifluoromethyl)piperidine-3-carboxamide] was below 10 nM.
For `O=C(Nc1ccc(O)c(C(F)(F)F)c1)[C@H]1C[C@@H](C(F)(F)F)CN(C(=O)c2c(F)cccc2F)[C@H]1c1ccc(NC2CCCC2)cc1` [INF068, (2R,3S,5R)-2-(4-(cyclopentylamino)phenyl)-1-(2,6-difluorobenzoyl)-N-(4-hydroxy-3-(trifluoromethyl)phenyl)-5-(trifluoromethyl)piperidine-3-carboxamide], the IC50 is below 10 nM.
For `Cc1ccc(NC(=O)[C@H]2C[C@@H](C(F)(F)F)CN(C(=O)c3c(F)cccc3F)[C@H]2c2ccc(NC3CCCC3)cc2)cc1Cl` [INF071, (2R,3S,5R)—N-(3-chloro-4-methylphenyl)-2-(4-(cyclopentylamino)phenyl)-1-(2,6-difluorobenzoyl)-5-(trifluoromethyl)piperidine-3-carboxamide], the IC50 is below 10 nM.
